Experimental data reported in patent US8815806B2, “Yellow pea seed protein-derived peptides” (University of Manitoba, priority 2009, dated 2014).

Legend:
[1] = tested on: spontaneously hypertensive rats (SHR); experiment: Spontaneously hypertensive rats, oral gavage, systolic blood pressure by tail-cuff; assay type: in vivo, rat; conditions: for change in systolic blood pressure (ΔSBP): 24 hour after oral gavage, 30 mg/kg BW; for hypotensive activities, duration of effect: over a 24 hr period, oral 30 mg/kg BW, FIG. 16
Experimental: Animal experiments were carried out following the Canadian Council on Animal Care ethics guidelines with a protocol approved by the University of Manitoba Animal Protocol and Management Review Committee. The spontaneously hypertensive rats (SHR) were kept in the Animal Housing Facility at the Richardson Centre for Functional Foods and Nutraceuticals, University of Manitoba under a 12-hr day and night cycle at 21° C. and were fed a regular chow diet and tap water, ad libitum. The SHR were divided into […] that received the following treatments (dissolved in phosphate buffered saline, pH 7.2): ADMFPF (SEQ ID NO. 23) peptide (n=6), WMP (SEQ ID NO. 15) peptide (n=6), captopril (positive control, n=6), saline (negative control, n=6). The peptides (each at 30 mg/kg body weight, BW) and captopril (3 mg/kg BW) were administered to the SHR by oral gavage followed by measurement of systolic blood pressure (SBP) at 2, 4, 6, 8 and 24 hr by the tail-cuff method in slightly anesthesized rats. Prior to sample administration, the baseline (time zero) SBP was determined. In order to mitigate the blood pressure (BP) depression effect of isofluorane, the gas flow was optimized such that rats became conscious usually within 3-4 min after removal from the chamber, which provided enough time to perform the blood pressure measurement. Rats were first anesthesized in a chamber (maintained at about 40° C.) with 4% isofluorane for 4 min. They were then removed from the isofluorane chamber and tail-cuff measurement of blood pressure performed in the […]. The change in SBP (ΔSBP, mmHg) was determined by subtracting the data for the different time points from their respective baseline data.

human recombinant renin = biological target: T1, human recombinant renin (Homo sapiens, UniProt P00797); experiment: Renin inhibitory activity assay (fluorometric); assay type: biochemical; conditions: Table 1; peptide concentration not given
T1 construct: purchased Cayman Chemical; host or cells: HEK cells
T1 sequence (P00797 67-406): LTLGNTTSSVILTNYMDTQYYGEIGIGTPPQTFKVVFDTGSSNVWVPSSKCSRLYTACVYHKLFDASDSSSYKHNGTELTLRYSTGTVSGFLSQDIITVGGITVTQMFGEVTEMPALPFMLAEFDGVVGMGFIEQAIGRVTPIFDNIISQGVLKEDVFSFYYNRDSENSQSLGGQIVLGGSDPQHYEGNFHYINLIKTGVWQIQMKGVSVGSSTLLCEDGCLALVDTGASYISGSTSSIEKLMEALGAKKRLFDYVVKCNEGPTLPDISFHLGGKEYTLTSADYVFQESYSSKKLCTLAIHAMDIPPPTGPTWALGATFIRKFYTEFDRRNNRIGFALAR
Experimental: Renin inhibitory activity assays were carried out on a Shimadzu RF 1501 spectrofluorometer equipped with thermostated cell holder according to the method of Wang, Chung, Holzman, & Krafft (1993) with some modifications (FIG. 5 and Table 1). The following instrumental parameters were used: excitation wavelength, 340 nm; emission wavelength, 490 nm; excitation and emission bandwidth, 10 nm. A standard 2 mL, 1 cm pathlength cuvettes containing 1 mL of buffer (or 1 mL varied peptide concentrations) and 1 mL of 2.5 μM substrate, was equilibrated at 37° C. for 5 min to gain thermal equilibrium. A 15 μL of renin (0.4 μg renin) was then added to the cuvette to initiate the reaction. The time dependent increase of fluorescence intensity was monitored for 5 min. The initial reaction velocity, expressed in arbitrary fluorescence units per minute (FU/min), was calculated by least-squares analysis of the initial phase of the reaction. The renin inhibiting activity of the peptide fractions and the individual peptides within are described in Table 1.
Renin inhibiting assay was modified from the fluorometric assay developed for renin activity measurement (FIG. 5). […] The Michaelis-Menten constant (Km) in our study is 3.8 μM for human recombinant renin in the absence of peptide fractions. This value is close to the reported KM of 3.6 μM using the same source of renin and substrate under similar assay conditions (Holzman et al 1991). However, Km of human recombinant renin was also reported to be 1.62 μM (Toshihisa et al., 1992), or 1.25 μM in purified human renal renin acting on pure human plasma angiotensingen at pH 5.7 (Cumin et al., 1987), 1.54 μM at pH 6.5 (Slater and Strout 1981). The Km value for the reaction between renin and substrate also depends on pH, ionic strength, the medium and the assay procedure used (Poulsen et al., 1976). The Michaelis-Menten constants were increased to 6.3 and 6.1 μM, respectively in the presence of peptide fractions of T4 and T5, indicating decreased binding ability between renin and substrate because of the presence of competitive peptide inhibitors.

Row | Compound | RENIN INHIBITION % (human recombinant renin) [%] | also measured
1 | C[C@H](CS)C(=O)N1CCC[C@H]1C(=O)O [Captopril, captopril, reference compound] |  | hypotensive effect compared to ADMFPF ([1]; after 24 hour, captopril 3 mg/kg BW oral): less effective
2 | ADMFPF (listed as Pisum sativum) [SEQ ID NO. 23] |  | change in systolic blood pressure (ΔSBP) [1]: −25 mmHg; hypotensive activities, duration of effect [1]: comparable to captopril
3 | SEQ ID NO. 13: peptide identified within the bioactive fractions of yellow pea protein hydrolysate (WLP; listed as Pisum sativum) | 4.85 | 
4 | SEQ ID NO. 14: peptide identified within the bioactive fractions of yellow pea protein hydrolysate (RAAP; listed as Pisum sativum) | 15.39 | 
5 | SEQ ID NO. 17: peptide identified within the bioactive fractions of yellow pea protein hydrolysate (RSPD; listed as Pisum sativum) | 57.53 | 
6 | SEQ ID NO. 18: peptide identified within the bioactive fractions of yellow pea protein hydrolysate (WPHT; listed as Pisum sativum) | 9.30 | 
7 | SEQ ID NO. 19: peptide identified within the bioactive fractions of yellow pea protein hydrolysate (YPRE; listed as Pisum sativum) | 22.19 | 
8 | WMP (listed as Pisum sativum) [SEQ ID NO. 15] | 43.37 | change in systolic blood pressure (ΔSBP) [1]: −14 mmHg; hypotensive activities, duration of effect [1]: comparable to captopril; hypotensive effects compared with ADMFPF ([1]; up to 8 hours after oral administration): initial higher hypotensive effects
